Experimental data taken from patent publication US20140243374A1, “Novel Sulfonamides” (The Brigham and Women's Hospital, Inc., priority 2011, published 2014).
Several values for one entry are separate records, joined by “and”; a condition that tells them apart may be missing. Equal entries are not always repeated.

What was measured:
Format in all cases: cell-based
[1] = molecular target: T1, γ-secretase (Notch cleavage activity) (Homo sapiens, UniProt P49768); assay: Cleaved Notch1 Sandwich ELISA (SUP-T1 cell line); conditions: for IC50: SUP-T1 cells, 16 h; for Notch Elisa/Aβ42: ratio Notch Elisa IC50 to Aβ42 IC50
T1 construct: endogenous in cells; host or cells: SUP-T1 cells
Description: Cleaved Notch1 Sandwich ELISA.
This assay was used to determine if the compounds of interest inhibit the Notch cleavage activity of γ-secretase in SUP-T1 cell line, which endogenously expresses a truncated Notch receptor fragment that is a viable gamma-secretase substrate. The base medium for this cell line is ATCC-formulated RPMI-1640 Medium with fetal bovine serum to a final concentration of 10%. Prepare dilution of SUP-T1 cells in complete growth medium to 1.0×10^6 cells/mL, seed 1.5 mL per well of each cell dilution into a 6-well plate. Collect cells treated with serial diluted compounds in DMSO after 16 h, then using equal amount of protein isolated from samples to measure Notch intracellular cleavage by PathScan® Sandwich ELISA Kit (Cell Signaling Tech 7194S).

[2] = molecular target: T2, γ-secretase (cleavage of Notch) (Homo sapiens, UniProt P49768); assay: Notch cellular assay (luciferase reporter U2OS cells); conditions: for IC50: U2OS luciferase reporter cells; for Notch Luc/Aβ42: ratio Notch luciferase IC50 to Aβ42 IC50
T2 construct: endogenous in cells; host or cells: U2OS luciferase reporter cells with Tet-on Notch
Description: This assay was used to determine if the compounds of interest inhibit the cleavage of Notch by γ-secretase in cells. A U2OS cell line in which the luciferase expression is adjusted by active Notch was used in this assay Notch expression is adjusted using Tet-on promoter. Luciferase reporter U2OS cells are plated at 1000 cells/well in 96 well plates in DMEM containing 100 μg/mL hygromycin, 15 μg/mL blasticidin and 1 μg/mL Tetracycline. Compounds were added 24 h after plating and the cells are lysed 6 days after adding compounds. Luciferase expression was performed using Steady-Glo Luciferase Assay System (Promega).

[3] = molecular target: T3, γ-secretase (cleavage of APP, Aβ42) (Homo sapiens, UniProt P49768); assay: Aβ (1-42) cellular assay (Aβ ELISA, HEK AP-GL-T1 6 cells); conditions: cellular Aβ42 ELISA, 24 h compound treatment
T3 construct: endogenous in cells; host or cells: HEK AP-GL-T16 luciferase reporter cells (tetracycline-induced APP substrate)
Description: Aβ (1-42) Cellular Assay.
The following assay was used to determine the extent to which the compounds of interest inhibit the cleavage of APP in vivo. AβELISA is a commercial fluorometric kit from Biosource (Invitrogen 89344). Luciferase reporter HEK AP-GL-T1 6 cells were plated at 50,000 cells/well in 96 well plates in DMEM media containing 10% tetracyclin free […], 250 μg/mL zeocin, 200 μg/mL hygromycin, and 5 μg/mL blasticidin. Compounds were added 24 h after plating and APP processing is induced simultaneously by addition of tetracycline. Following a 24 h compound treatment, […] of conditioned cell media is collected, mixed with ELISA diluent buffer containing 2 mM AEBSF and 12 mM o-phenanthroline, and immediately frozen at −80° C. For the ELISA, the samples were brought to room temperature and spun at 5000 rpm for 5 min. Samples ([…]) are incubated in the ELISA plate with […] detection antibody on a shaker at room temperature for 3 h. Wells were then washed 4 times with wash buffer and 100 mL of secondary antibody are added and incubated at room temperature for 30 min. Wells were again washed 4 times with wash buffer and 100 mL of fluorescent substrate solution are added. After 30 minutes of incubation, fluorescent signals are determine on a Gemini reader at ex 460 nm and em 560 nm. The amount of Aβ levels in each sample was determined from a standard curve generated by known concentrations of Aβ peptide run simultaneously with the samples.

Structure (SMILES) | IC50 [1] | Notch Elisa/Aβ42 [1] | IC50 [2] | Notch Luc/Aβ42 [2] | IC50 [3] | also measured
CC(=O)CNC(=O)c1ccc(CN(C2CCCCC2C)S(=O)(=O)c2ccc(Cl)cc2)cc1 (stereo not drawn) [Example 48, 4-((4-Chloro-N-(2-methylcyclohexyl)phenylsulfonamido)methyl)-N-(2-oxopropyl)benzamide] | 220 nM | 314 | 182 nM | 260 | 0.715 nM | –
O=C(O)c1ccc(CN(C2CCCCC2F)S(=O)(=O)c2ccc(Cl)cc2)cc1 (single isomer, unassigned) [Example 59, 4-((4-Chloro-N-(2-fluorocyclohexyl)phenylsulfonamido)methyl)benzoic acid] | 2930 nM | – | 9400 nM | – | 60.7 nM and 195 nM and 101 nM | Notch Elisa/Aβ42 ([1]; listed as 59/1231B): 25; Notch Luc/Aβ42 ([2]; listed as 59/1231B): 79
CC[C@@H](C1CCCC1)N(Cc1ccc(C(=O)OC)cc1)S(=O)(=O)c1ccc(Cl)cc1 [Example 21, (S)-Methyl 4-((4-chloro-N-(1-cyclopentylpropyl)phenylsulfonamido)methyl)benzoate] | – | – | 13000 nM | 542 | 24 nM | –
CC1CCCCC1N(Cc1ccc(C(=O)NCCN(C)C)cc1)S(=O)(=O)c1ccc(Cl)cc1 (stereo not drawn) [Example 40, 4-((4-Chloro-N-(2-methylcyclohexyl)phenylsulfonamido)methyl)-N-(2-(dimethylamino)ethyl)benzamide] | – | – | 3030 nM | – | 2.56 nM | –
O=C(O)c1ccc(CN(C2CCCCC2F)S(=O)(=O)c2ccc(Cl)cc2)cc1 (stereo not drawn) [Example 57, 4-((4-Chloro-N-(2-fluorocyclohexyl)phenylsulfonamido)methyl)benzoic acid] | 1070 nM | – | 28600 nM | – | 50.1 nM and 79.6 nM and 98.5 nM | Notch Elisa/Aβ42 ([1]; listed as 57/1231): 14; Notch Luc/Aβ42 ([2]; listed as 57/1231): 376
CC1CCCCC1N(Cc1ccc(C(=O)NCCC(F)(F)F)cc1)S(=O)(=O)c1ccc(Cl)cc1 (stereo not drawn) [Example 55, 4-((4-Chloro-N-(2-methylcyclohexyl)phenylsulfonamido)methyl)-N-(3,3,3 trifluoropropyl)benzamide] | – | – | 1100 nM | 256 | 4.3 nM | –
COC(=O)c1ccc(CN(C2CCCCC2C)S(=O)(=O)c2ccc(Cl)cc2)cc1 (stereo not drawn) [Example 2, Methyl 4-((4-chloro-N-(2-methylcyclohexyl)phenylsulfonamido)methyl)benzoate] | – | – | 3000 nM | – | 3.4 nM | –
CC1CCCCC1N(Cc1ccc(C(=O)N[C@H](C)CO)cc1)S(=O)(=O)c1ccc(Cl)cc1 (stereo partly drawn) [Example 4, 4-((4-Chloro-N-(2-methylcyclohexyl)phenylsulfonamido)methyl)-N-((R)-1-hydroxypropan-2-yl)benzamide] | 180 nM and 120 nM | 188 | – | 2950 | 0.87 nM and 0.65 nM and 0.89 nM | –
COC[C@@H](C)NC(=O)c1ccc(CN(C2CCCCC2C)S(=O)(=O)c2ccc(Cl)cc2)cc1 (stereo partly drawn) [Example 46, 4-((4-Chloro-N-(2-methylcyclohexyl)phenylsulfonamido)methyl)-N-((R)-1-methoxypropan-2-yl)benzamide] | 710 nM | – | 303 nM | – | 0.7 nM | Notch Luc/Aβ42 ([2]; listed as 46/1221): 432
CC1CCCCC1N(Cc1ccc(C(=O)NCCC(=O)O)cc1)S(=O)(=O)c1ccc(Cl)cc1 (stereo not drawn) [Example 36, 3-(4-((4-Chloro-N-(2-methylcyclohexyl)phenylsulfonamido)methyl)benzamido)propanoic acid] | – | – | 4580 nM | 57 | 80.7 nM | –
CCN(CCN1CCCC1)C(=O)c1ccc(CN(C2CCCCC2C)S(=O)(=O)c2ccc(Cl)cc2)cc1 (stereo not drawn) [Example 39, 4-((4-Chloro-N-(2-methylcyclohexyl)phenylsulfonamido)methyl)-N-ethyl-N-(2-(pyrrolidin-1-yl)ethyl)benzamide] | 2260 nM | 38 | – | – | 40.7 nM and 77.4 nM | –
CC1CCCCC1N(Cc1ccc(C(=O)NCC(F)(F)F)cc1)S(=O)(=O)c1ccc(Cl)cc1 (stereo not drawn) [Example 54, 4-((4-Chloro-N-(2-methylcyclohexyl)phenylsulfonamido)methyl)-N-(2,2,2-trifluoroethyl)benzamide] | – | – | 574 nM | 220 | 2.61 nM | –
O=C(O)c1ccc(CN(C2CCCC(C(F)(F)F)C2)S(=O)(=O)c2ccc(Cl)cc2)cc1 (stereo not drawn) [Example 51, 4-((4-Chloro-N-(3-(trifluoromethyl)cyclohexyl)phenylsulfonamido)methyl)benzoic acid] | – | – | 3230 nM | 52 | 62.2 nM | –
O=C(O)c1ccc(CN(C2CCCC(C(F)(F)F)C2)S(=O)(=O)c2ccc(Cl)cc2)cc1 (single isomer, unassigned) [Example 53, 4-((4-Chloro-N-(3-(trifluoromethyl)cyclohexyl)phenylsulfonamido)methyl)benzoic acid] | 34800 nM | – | – | – | 1190 nM | Notch Elisa/Aβ42 ([1]; listed as 53/1227D): 29

Now from value to compound, other results behind:

IC50 [1] | Notch Elisa/Aβ42 [1] | IC50 [2] | Notch Luc/Aβ42 [2] | IC50 [3] | Structure (SMILES) | also measured
1070 nM | 89 | – | – | 12 nM | C[C@H](CO)NC(=O)c1ccc(CN(C2CCCC(C(F)(F)F)C2)S(=O)(=O)c2ccc(Cl)nc2)cc1 (stereo partly drawn) [Example 64, 4-((6-Chloro-N-(3-(trifluoromethyl)cyclohexyl)pyridine-3-sulfonamido)methyl)-N—((R)-1-hydroxypropan-2-yl)benzamide] | –
10000 nM | 78 | – | – | 130 nM | CN(C)CCNC(=O)c1ccc(CN(C2CCCCC2F)S(=O)(=O)c2ccc(Cl)cc2)cc1 (stereo not drawn) [Example 74, 4-((4-Chloro-N-(2-fluorocyclohexyl)phenylsulfonamido)methyl)-N-(2-(dimethylamino)ethyl)benzamide] | –
1150 nM | 84 | – | – | 13.7 nM | C[C@H](CO)NC(=O)c1ccc(CN(C2CCCCC2F)S(=O)(=O)c2ccc(Cl)nc2)cc1 (stereo partly drawn) [Example 65, 4-((6-Chloro-N-(2-fluorocyclohexyl)pyridine-3-sulfonamido)methyl)-N—((R)-1-hydroxypropan-2-yl)benzamide] | –
5200 nM | 26 | – | – | 135 nM and 261 nM | O=C(O)c1ccc(CN(C2CCCCC2F)S(=O)(=O)c2ccc(Cl)nc2)cc1 (stereo not drawn) [Example 62, 4-((6-Chloro-N-(2-fluorocyclohexyl)pyridine-3-sulfonamido)methyl)benzoic acid] | –
5060 nM | 56 | – | – | 89.9 nM | O=C(O)c1ccc(CN(C2CCCCC2(F)F)S(=O)(=O)c2ccc(Cl)cc2)cc1 (stereo not drawn) [Example 76, 4-((4-Chloro-N-(2,2-difluorocyclohexyl)phenylsulfonamido)methyl)benzoic acid] | –
879 nM | 63 | – | – | 14 nM | CC1CCCCC1N(Cc1ccc(C#N)cc1)S(=O)(=O)c1ccc(Cl)cc1 (stereo not drawn) [Example 78, 4-Chloro-N-(4-cyanobenzyl)-N-(2-methylcyclohexyl)benzenesulfonamide] | –
1570 nM | 35 | – | – | 44.3 nM | COC(=O)c1ccc(CN([C@@H]2CCCC[C@H]2F)S(=O)(=O)c2ccc(Cl)cc2)cc1 [Example 83, Methyl 4-((4-chloro-N-((1R,2R)-2-fluorocyclohexyl)phenylsulfonamido)methyl)benzoate] | –
1550 nM | 305 | – | – | 4.58 nM and 7 nM | C[C@H](CO)NC(=O)c1ccc(CN(C2CCCCC2F)S(=O)(=O)c2ccc(Cl)cc2)cc1 (stereo partly drawn) [Example 60, 4-((4-Chloro-N-(2-fluorocyclohexyl)phenylsulfonamido)methyl)-N—((R)-1-hydroxypropan-2-yl)benzamide] | –
